Nine compounds from patent US7196192B2, “28-epirapalogs” (Ariad Gene Therapeutics, Inc., priority 1999, dated 2007) can be followed below.

One assay deals with murine splenocyte. Nature of the assay: murine splenocyte assay for immunosuppressive activity. Type of assay: cell-based. Particulars: mouse splenocyte assay, methods of Example 2.5, read-out: Splenocyte IC50. On the procedure: 3. Conventional murine splenocyte assay for immunosuppressive activity.
(§1) A diverse group of C7-modified 28-epirapalogs were prepared as described in Example 4.

Assay [1] addresses T1, transcriptional switch components containing FKBP and 2098L mutant FRB domains (Homo sapiens, UniProt P42345+P62942).
T1 construct: transcriptional switchcomponents containing FKBP and 2098L mutant FRB domains, respectively; fused on or other part: The two switch components are separate chimeric proteins; Neither is given for this cell line
Nature of the assay: transcription assay in engineered HD1080 cells expressing SEAP (txn 2098L). The class given is cell-based. In short, it runs like this: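 HT1080-type engineered HD1080 cells constitutively express FKBP and 2098L-mutant FRB switch components and express SEAP upon compound-induced multimerization. Compound added to medium; secreted SEAP reporter measured after incubation. EC50 derived.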

A further assay has as its target FKBP (Homo sapiens, UniProt P62942). Nature of the assay: FKBP competitive binding assay based on fluorescence polarization (FP). Particulars: competitive FP binding, methods of Example 2.5. The procedure:
A Competitive Binding FP Assay is described in detail in WO99/36553 and WO96/41865. That assay permits the in vitro measurement of an IC50 value for a given compound which reflects its ability to bind to an FKBP-protein in competition with a labeled FKBP ligand, such as, for example, FK506.
as §1

The mark [2] stands for this setting: cellular transcription assay, methods of Example 2.5; read-out: TXN 2098L EC50.

Read-outs that look alike come from different tables or passages of the source.

T1 sequence (P62942 2-108 limits assumed, stated change not applied, other chains not shown): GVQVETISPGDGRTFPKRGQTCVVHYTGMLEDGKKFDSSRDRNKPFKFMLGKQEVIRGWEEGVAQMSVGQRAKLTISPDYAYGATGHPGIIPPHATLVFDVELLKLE
Chain of FKBP (P62942 whole entry): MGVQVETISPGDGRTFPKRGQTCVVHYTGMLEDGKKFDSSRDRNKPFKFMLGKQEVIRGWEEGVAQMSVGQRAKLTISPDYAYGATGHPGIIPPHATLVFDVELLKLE

On to `CO[C@@H]1C[C@H](C[C@@H](C)[C@@H]2CC(=O)[C@H](C)/C=C(\C)[C@H](O)[C@@H](OC)C(=O)[C@H](C)C[C@H](C)/C=C/C=C/C=C(\C)[C@@H](NC(=O)OCc3ccccc3)C[C@@H]3CC[C@@H](C)[C@@](O)(O3)C(=O)C(=O)N3CCCC[C@H]3C(=O)O2)CC[C@H]1O` [28-epi-7S-benzylcarbamate], for which the IC50 in the assay on murine splenocyte (Mus musculus, Splenocyte) is 3.45 µM; at FKBP (read-out: FKBP IC50), 40 nM. Moreover, the 50% effective concentration (EC50) in assay [1] (setting [2]) was 0.015 µM.

With `CCCCS(=O)(=O)N[C@H]1C[C@@H]2CC[C@@H](C)[C@@](O)(O2)C(=O)C(=O)N2CCCC[C@H]2C(=O)O[C@H]([C@H](C)C[C@@H]2CC[C@@H](O)[C@H](OC)C2)CC(=O)[C@H](C)/C=C(\C)[C@H](O)[C@@H](OC)C(=O)[C@H](C)C[C@H](C)/C=C/C=C/C=C/1C` [28-epi-7S-butanesulfonamide], the 50% inhibitory concentration (IC50) in the assay on murine splenocyte (Mus musculus, Splenocyte) is 0.152 µM; at FKBP (read-out: FKBP IC50) it was 9.2 nM. Also, in assay [1] (setting [2]), the EC50 was found to be 0.011 µM. Also, the “TXN 2098L peak relative to rapamycin peak” value in assay [1] (superscript mark on EC50 cell) is “(+) (peak was >125% rapamycin peak)”.

Take `COc1ccc([C@H]2C[C@@H]3CC[C@@H](C)[C@@](O)(O3)C(=O)C(=O)N3CCCC[C@H]3C(=O)O[C@H]([C@H](C)C[C@@H]3CC[C@@H](O)[C@H](OC)C3)CC(=O)[C@H](C)/C=C(\C)[C@H](O)[C@@H](OC)C(=O)[C@H](C)C[C@H](C)/C=C/C=C/C=C/2C)c(OC)c1` [28-epi-7S-dimethoxyphenyl]: the IC50 was 0.598 to 1.06 µM in the assay with murine splenocyte (Mus musculus, Splenocyte) and 31 nM at FKBP (read-out: FKBP IC50). In addition, the EC50 in assay [1] (setting [2]) worked out at 0.05 µM.

For `COC1CC(CC(C)C2CC(=O)C(C)C=C(C)C(O)C(OC)C(=O)C(C)CC(C)C=CC=CC=C(C)C(NS(=O)(=O)N(C)C)CC3CCC(C)C(O)(O3)C(=O)C(=O)N3CCCCC3C(=O)O2)CCC1O` (stereo not drawn) [28-epi-7S-dimethylsulfamide], the IC50 stood at 0.879 µM in the assay on murine splenocyte and 13 nM at FKBP (read-out: FKBP IC50). Also, in assay [1] (setting [2]), the concentration giving a half-maximal response (EC50) was 0.02 µM. Also, the “TXN 2098L peak relative to rapamycin peak” value in assay [1] (superscript mark on EC50 cell) is listed as “(+) (peak was >125% rapamycin peak)”.

In the case of `CCOC(=O)N[C@H]1C[C@@H]2CC[C@@H](C)[C@@](O)(O2)C(=O)C(=O)N2CCCC[C@H]2C(=O)O[C@H]([C@H](C)C[C@@H]2CC[C@@H](O)[C@H](OC)C2)CC(=O)[C@H](C)/C=C(\C)[C@H](O)[C@@H](OC)C(=O)[C@H](C)C[C@H](C)/C=C/C=C/C=C/1C` [28-epi-7S-ethylcarbamate], the 50% inhibitory concentration (IC50) is > 5 µM in the assay with murine splenocyte (Mus musculus, Splenocyte) and 13 nM at FKBP (FKBP IC50 (nM)). Also, in assay [1] (read-out: TXN 2098L EC50; cellular transcription assay, methods of Example 2.5), the EC50 was found to be 0.01 µM.

For the compound `CO[C@@H]1C[C@H](C[C@@H](C)[C@@H]2CC(=O)[C@H](C)/C=C(\C)[C@H](O)[C@@H](OC)C(=O)[C@H](C)C[C@H](C)/C=C/C=C/C=C(\C)[C@@H](NS(C)(=O)=O)C[C@@H]3CC[C@@H](C)[C@@](O)(O3)C(=O)C(=O)N3CCCC[C@H]3C(=O)O2)CC[C@H]1O` [28-epi-7S-methanesulfonamide], the IC50 in the assay with murine splenocyte (Mus musculus, Splenocyte) is 0.007 µM; at FKBP (read-out: FKBP IC50), 16 nM. The EC50 in assay [1] (setting [2]) turned out to be 0.024 µM.

Turning to `CO[C@@H]1C[C@H](C[C@@H](C)[C@@H]2CC(=O)[C@H](C)/C=C(\C)[C@H](O)[C@@H](OC)C(=O)[C@H](C)C[C@H](C)/C=C/C=C/C=C(\C)[C@@H](NS(=O)(=O)N(C)c3ccccc3)C[C@@H]3CC[C@@H](C)[C@@](O)(O3)C(=O)C(=O)N3CCCC[C@H]3C(=O)O2)CC[C@H]1O` [28-epi-7S-methylphenylsulfamide], the results for the half-inhibitory concentration (IC50) in the assay with murine splenocyte and at FKBP (read-out: FKBP IC50) were 0.564 µM and 11 nM, respectively. Also, in assay [1] (setting [2]), the half-maximal effective concentration (EC50) came to 0.028 µM.

Regarding `COC1CC(CC(C)C2CC(=O)C(C)C=C(C)C(O)C(OC)C(=O)C(C)CC(C)C=CC=CC=C(C)C(c3ccc(C)s3)CC3CCC(C)C(O)(O3)C(=O)C(=O)N3CCCCC3C(=O)O2)CCC1O` (stereo not drawn) [28-epi-7S-methylthiophene], the values for the half-maximal inhibitory concentration (IC50) in the assay with murine splenocyte and on FKBP (read-out: FKBP IC50) were 0.17 to 0.242 µM and 86 nM, respectively. For the same compound, in assay [1] (setting [2]), the EC50 was 0.025 µM.

Regarding `COC1CC(CC(C)C2CC(=O)C(C)C=C(C)C(O)C(OC)C(=O)C(C)CC(C)C=CC=CC=C(C)C(NC(=O)Oc3ccccc3)CC3CCC(C)C(O)(O3)C(=O)C(=O)N3CCCCC3C(=O)O2)CCC1O` (stereo not drawn) [28-epi-7S-phenylcarbamate], the IC50 in the assay with murine splenocyte was > 5 µM; on FKBP (read-out: FKBP IC50), 18 nM. The EC50 in assay [1] (setting [2]) came out at 0.014 µM. Besides, the “TXN 2098L peak relative to rapamycin peak” value in assay [1] (superscript mark on EC50 cell) is given as “(+) (peak was >125% rapamycin peak)”.

Usually IC50 stands for the concentration at which inhibition is half-maximal. Broadly, the EC50 is the concentration at which the effect is half-maximal.
